Values quoted from earlier work as cited in patent US20120270995A1, “AQUEOUS FORMULATIONS INCLUDING DIOXOLANES AS COUPLING AGENTS” (RHODIA POLIAMIDA E ESPECIALIDADES LTDA, priority 2009, published 2012).
Read-outs that look alike come from different tables or passages of the source.

Columns and labels:
[1] = in vivo
[2] = in vivo; remark: listed apart in the source
[3] = not given; remark: listed apart in the source
[4] = in vivo; remark: listed apart in the source
[5] = CMR = carcinogenic/mutagenic/reproductively toxic

Compound | Skin irritation [1] | Aquatic toxicity [2] | Vapour point (20° C.) [mmHg] | Acute oral toxicity [3] | Eye irritation [4] | CMR [5] | Vapour point (37.8° C.) [mmHg] | Vapour point (25° C.) [mmHg]
Methylglycol | weak | 18 000 mg/l | 6.2 | 18 000 mg/kg | severe | – | – | –
CCOCCOC(C)=O [Ethylglycol acetate] | severe | 244.66 mg/L | 2.0 | 2900 mg/kg | severe | cat. 2 | – | –
CCCCOCCO [Butylglycol] | – | – | 0.8 | – | – | – | – | –
CC1(C)OCC(CO)O1 (stereo not drawn) [Solketal, 2,2-Dimethyl-1,3-dioxolane-4-methanol] | moderate | >1000 mg/L | – | 7000 mg/kg | moderate | – | 52.0 | –
CCOCCOCCO [Ethyldiglycol] | severe | 13 400 mg/l | – | 5500 mg/kg | severe | – | – | 0.1
CCOCCO [Ethylglycol] | moderate | 5000 mg/L | – | 3000 mg/kg | weak | cat. 2 | – | 5.3
CCCCOCCOC(C)=O [Butylglycol acetate] | weak | 103.17 mg/L | 0.4 | 2360 mg/kg | weak | – | – | –
